From patent US12662714B2, “Method for separation of adjacent lanthanide elements” (UT-Battelle, LLC, priority 2022, dated 2026)

Assays:
[1] = Solvent extraction of Lns, distribution ratio of Sm; settings: 13 mM Ligand 2 used instead of ligand 1; 0.1 M DGA; 1 M HNO3; 1 h
[2] = Solvent extraction of Lns, distribution ratio of La; settings: 13 mM Ligand 2 used instead of ligand 1; 0.1 M DGA; 1 M HNO3; 1 h
[3] = Solvent extraction of Lns, distribution ratio of Gd; settings: 13 mM Ligand 2 used instead of ligand 1; 0.1 M DGA; 1 M HNO3; 1 h
[4] = Extraction of 14 Lns from aqueous phase into oil phase; settings: 0.1 M DGA alone; 14 Lns 0.5 mM each; 1 M HNO3
Protocol: (§1) General procedure: a 500 microliter (μL) aqueous phase consisting of 7 mM Ln(III) (0.5 mM of each Ln(III)) in 1 M HNO3 without or with aqBLPhen 1 (3, 13, or 25 mM) was contacted with an equal volume of organic phase containing 0.1 M DGA (3, 4, or 5). The two phases were contacted in a 1:1 ratio of organic/aqueous by end-over-end rotation in individual 1.8 mL capacity snap-top Eppendorf tubes using a rotating wheel in an airbox set at 25.5±0.5° C. Contacts were performed in triplicate with a contact time of 1 hour. The samples were centrifuged at 1811 g for 2 min at room temperature to separate the phases. Each triplicate was then sub-sampled, using a 300 μL aliquot of the aqueous phase transferred to individual polypropylene tubes and diluted with 2% HNO3 for analysis using ICP-MS or ICP-OES. Two samples of the initial lanthanide solution were similarly prepared.
(§2) The ability of 1 and DGA to separate Lns was evaluated using a two-component, immiscible solvent system: nitric acid (aqueous phase containing 1) and n-dodecane with 10 vol % 1-octanol (oil phase containing DGA). The amount of Ln partitioned from the aqueous phase into the oil phase was measured using inductively coupled plasma optical emission spectroscopy or mass spectrometry. The Ln concentration in each phase was then used to calculate the separation efficiency.
(§3) The percentage of Lns in the aqueous and the oil phases is presented in FIGS. 1a-1i. for each DGA in the absence and presence of the aqueous complexant 1 (E=([Ln1]/[Ln1]0)×100%). The distribution ratios (i.e., D=[Ln1]org/[Ln1]aq) for select Lns are listed in Table 1, which also include selectivities (i.e., SFLn1/Ln2=DLn1/DLn2), for several Ln pairs. An efficient separation of Lns was achieved when DLn1>1 and DLn2<1 or ELn1>50% and ELn2<50%. […] Neither of the three DGAs can separate Lns in a single extraction stage.

[5] = Solvent extraction of Lns, separation factor Gd/La; settings: for SFGd/La separation factor: 0.1 M DGA, 1 M HNO3, 1 h
Protocol: as §1, §2, §3

[6] = Solvent extraction of Lns, separation factor Sm/Nd; settings: 13 mM Ligand 2 used instead of ligand 1; 0.1 M DGA; 1 M HNO3; 1 h
[7] = Solvent extraction of Lns, separation factor Dy/Nd; settings: 0.1 M DGA, 1 M HNO3, 1 h
Protocol: as §1, §2, §3

[8] = Solvent extraction of Lns, separation factor Gd/La; settings: 13 mM Ligand 2 used instead of ligand 1; 0.1 M DGA; 1 M HNO3; 1 h
[9] = Solvent extraction of Lns, distribution ratio of Nd; settings: 0.1 M DGA, 1 M HNO3, 1 h
Protocol: as §1, §2, §3

[10] = Solvent extraction of Lns, separation factor Nd/Pr; settings: 13 mM Ligand 2 used instead of ligand 1; 0.1 M DGA; 1 M HNO3; 1 h
[11] = Solvent extraction of Lns, distribution ratio of La; settings: 1 M HNO3, 1 h
Protocol: as §1, §2, §3

[12] = Solvent extraction of Lns, separation factor Nd/Pr; settings: 0.1 M DGA, 1 M HNO3, 1 h
Protocol: as §1, §2, §3

[13] = Solvent extraction of Lns, separation factor Dy/Nd; settings: 13 mM Ligand 2 used instead of ligand 1; 0.1 M DGA; 1 M HNO3; 1 h
[14] = Solvent extraction of Lns, distribution ratio of Sm; settings: 0.1 M DGA, 1 M HNO3, 1 h
Protocol: as §1, §2, §3

[15] = Solvent extraction of Lns, separation factor Sm/Nd; settings: 0.1 M DGA, 1 M HNO3, 1 h
Protocol: as §1, §2, §3

[16] = Solvent extraction of Lns, distribution ratio of Nd; settings: 13 mM Ligand 2 used instead of ligand 1; 0.1 M DGA; 1 M HNO3; 1 h
[17] = Optimized separation of adjacent Ln pair Nd-Pr with 1 and Ligand 3
Protocol: The synergistic use of 1 and Ligand 3 was further optimized to maximize the separation of one adjacent Ln pair Nd—Pr using the percentage of Ln extracted as a guide. The separation of Nd and Pr reached equilibrium in less than 1 hour, and the D values for both increased at higher HNO3 and Ligand 3 concentrations (FIGS. 3b and 3c). Ligand 3, being a neutral ligand, requires co-extraction of counterions (i.e., three NO3^−) with Ln; thus, the extraction of Lns with DGA is favored at high nitrate concentration, and the process is reversed at low anion concentration.
The highest selectivity of 4.9±0.2 for Nd—Pr pair was obtained when separating 2.5 mM Nd and Pr, each using 13 mM of 1 in 1 M HNO3 with 0.1 M of Ligand 3 in the oil phase and equilibrating for 30 min at 25.5° C. Next, the recovery of Nd and Pr from each phase after extraction using the 1-Ligand 3-HNO3 system was investigated. […] The charged ligand (CO3^2−) outcompetes neutral ligand 1 in complexing with Ln ions; furthermore, the thermodynamics of the Ln2(CO3)3 formation is highly favorable due to high crystal lattice energy of the salt. The identity of the precipitate was confirmed using Fourier-transform infrared spectroscopy (FTIR), and the results are in good agreement with commercially available Pr and Nd carbonate salts. Ligand 1 remains in the aqueous solution that can be further recycled in the lanthanide separation process.

[18] = Solvent extraction of Lns, distribution ratio of Gd; settings: 0.1 M DGA, 1 M HNO3, 1 h
Protocol: as §1, §2, §3

[19] = Solvent extraction of Lns, separation factor Tb/Gd; settings: 0.1 M DGA, 1 M HNO3, 1 h
Protocol: as §1, §2, §3

Work on `CCCCCCCCN(C)C(=O)COCC(=O)N(C)CCCCCCCC` [Ligand 3, N,N′-dimethyl-N,N′-di(n-octyl)diglycolamide] yielded a DSm distribution ratio [1] of 163, a DLa distribution ratio [2] of 2.65 and a DGd distribution ratio [3] of 360. The “extraction of Lns from the aqueous phase into the oil phase” value [4] was “nearly quantitatively extracted all Lns”, the SFGd/La separation factor ([5]; [1] 0 mM) was 36 and the SFGd/La separation factor ([5]; [1] 3 mM) was 2010. The SFGd/La separation factor ([5]; [1] 13 mM) was 1992, the SFGd/La separation factor ([5]; [1] 25 mM) was 1512 and the “times higher selectivity for Gd over La than the TDdDGA-DOODA(C2) system” value ([5]; combination of 1 and Ligand 3) was about 2 times. The “times higher selectivity for Gd over La than the TODGA-DOODA(C2) system” value ([5]; combination of 1 and Ligand 3) was 20 times, the SFSm/Nd separation factor [6] was 7.6 and the SFDy/Nd separation factor ([7]; [1] 0 mM) was 4.7. For the same compound, the SFDy/Nd separation factor ([7]; [1] 3 mM) was 352, the SFDy/Nd separation factor ([7]; [1] 13 mM) was 451 and the SFDy/Nd separation factor ([7]; [1] 25 mM) was 1313. For the same compound, the SFGd/La separation factor [8] was 136, the DNd distribution ratio ([9]; [1] 0 mM) was 558 and the DNd distribution ratio ([9]; [1] 3 mM) was 11.0. For the same compound, the DNd distribution ratio ([9]; [1] 13 mM) was 10.7, the DNd distribution ratio ([9]; [1] 25 mM) was 2.34 and the SFNd/Pr separation factor [10] was 2.3. It also gave a DLa distribution ratio ([11]; [1] 0 mM, 0.1 M DGA in n-dodecane with 10 vol % 1-octanol, 0.5 mM each Ln) of 71, a DLa distribution ratio ([11]; [1] 3 mM, 0.1 M DGA) of 0.59 and a DLa distribution ratio ([11]; [1] 13 mM, 0.1 M DGA) of 0.28. It also gave a DLa distribution ratio ([11]; [1] 25 mM, 0.1 M DGA) of 0.23, an SFNd/Pr separation factor ([12]; [1] 0 mM) of 2.1 and an SFNd/Pr separation factor ([12]; [1] 3 mM) of 4.0. The SFNd/Pr separation factor ([12]; [1] 13 mM) was 4.2, the SFNd/Pr separation factor ([12]; [1] 25 mM) was 3.2 and the SFDy/Nd separation factor [13] was 60. The DSm distribution ratio ([14]; [1] 0 mM) was 1795, the DSm distribution ratio ([14]; [1] 3 mM) was 222 and the DSm distribution ratio ([14]; [1] 13 mM) was 68.1. The DSm distribution ratio ([14]; [1] 25 mM) was 42.2, the SFSm/Nd separation factor ([15]; [1] 0 mM) was 3.2 and the SFSm/Nd separation factor ([15]; [1] 3 mM) was 20. For the same compound, the SFSm/Nd separation factor ([15]; [1] 13 mM) was 6.4, the SFSm/Nd separation factor ([15]; [1] 25 mM) was 18 and the DNd distribution ratio [16] was 21.4. For the same compound, the “highest selectivity for Nd-Pr pair” value ([17]; 2.5 mM Nd and Pr each, 13 mM of 1 in 1 M HNO3, 0.1 M Ligand 3 in oil phase, 30 min, 25.5° C.) was 4.9±0.2, the “time for the separation of Nd and Pr to reach equilibrium” value ([17]; 1 and Ligand 3) was “less than 1 hour” and the “recovery of Nd and Pr from the spent oil phase” value ([17]; three consecutive contacts with an equal volume of deionized water) was “Near-quantitative recovery”. For the same compound, the DGd distribution ratio ([18]; [1] 0 mM) was 2531, the DGd distribution ratio ([18]; [1] 3 mM) was 1192 and the DGd distribution ratio ([18]; [1] 13 mM) was 552. It also gave a DGd distribution ratio ([18]; [1] 25 mM) of 346, an SFTb/Gd separation factor ([19]; 13 mM Ligand 2 used instead of ligand 1) of 1.6 and an SFTb/Gd separation factor ([19]; [1] 0 mM) of 1.1. The SFTb/Gd separation factor ([19]; [1] 3 mM) was 2.0, the SFTb/Gd separation factor ([19]; [1] 13 mM) was 3.0 and the SFTb/Gd separation factor ([19]; [1] 25 mM) was 3.0.
